From US20230284620A1, “MIXTURES OF PYRIDAZINES AS HERBICIDAL COMPOSITIONS” (SYNGENTA CROP PROTECTION AG, priority 2020, published 2023)

Key:
Assay in all cases: Post-emergence glasshouse herbicide test, visual phytotoxicity
Type in all cases: in vivo
Settings in all cases: 13 days
[1] = test system: Abutilon threophrasti (ABUTH)
Method: (§1) Seeds of Setaria faberi (SETFA), Echinochloa crus-galli (ECHCG), Digitaria sanguinalis (DIGSA), Lolium perenne (LOLPE), Alopecurus myosuroides (ALOMY), Chenopodium album (CHEAL), Ipomoea hederacea (IPOHE), Stellaria media (STEME), Abutilon threophrasti (ABUTH) and Amaranthus retroflexus (AMARE) were sown in standard sterilised soil in pots. After cultivation for 8 days under controlled conditions in a glasshouse (at 24/19° C., day/night; 16 hours light; no humidity control), the plants were sprayed at 500 l/Ha with an aqueous spray solution derived from the formulation of the technical active ingredients in a small amount of acetone and a solvent and emulsifier mixture referred to as IF50 (11.12% Emulsogen EL360 TM+44.44% N-methylpyrrolidone+44.44% Dowanol DPM glycol ether), to create a 50 g/l solution which was then diluted using 0.2% Genapol X080 (CAS Number: 9043-30-5) as diluent to give the desired final dose of test compound.
(§2) Where active ingredients were applied as mixtures, aqueous spray solutions were prepared as above, containing both active ingredients.
(§3) The test plants were then grown under controlled conditions in a glasshouse (at 24/18° C., day/night; 15 hours light; 50% humidity) and watered twice daily. After 13 days, the test was evaluated visually for percentage phytotoxicity to the plants (where 100=total damage to plant; 0=no damage to plant; and NC=not captured) when compared to control untreated plants. Two to four replicates were applied for each treatment in a randomised block test design.
(§4) 22., E=X+Y−(X*Y/100), where • X=average percent phytotoxicity of herbicide A when applied at a certain rate • Y=average percent phytotoxicity using herbicide B when applied at a certain rate • E=the expected effect of the mixture of herbicides A and B as calculated from the Colby formula.

[2] = test system: Alopecurus myosuroides (ALOMY)
Method: as §1, §2, §3, §4

[3] = test system: Amaranthus retroflexus (AMARE)
Method: as §1, §2, §3, §4

[4] = test system: Chenopodium album (CHEAL)
Method: as §1, §2, §3, §4

[5] = test system: Digitaria sanguinalis (DIGSA)
Method: as §1, §2, §3, §4

[6] = test system: Echinochloa crus-galli (ECHCG)
Method: as §1, §2, §3, §4

[7] = test system: Ipomoea hederacea (IPOHE)
Method: as §1, §2, §3, §4

[8] = test system: Lolium perenne (LOLPE)
Method: as §1, §2, §3, §4

[9] = test system: Setaria faberi (SETFA)
Method: as §1, §2, §3, §4

[10] = test system: Stellaria media (STEME)
Method: as §1, §2, §3, §4

SMILES: CCOC(=O)COc1ncccc1Oc1cc(-n2c(=O)cc(C(F)(F)F)n(C)c2=O)c(F)cc1Cl [B-V]
- percentage phytotoxicity ABUTH ([1]; 0.08 g/ha): 23%
- percentage phytotoxicity ABUTH ([1]; 0.16 g/ha): 75%
- percentage phytotoxicity ABUTH ([1]; 0.32 g/ha): 85%
- percentage phytotoxicity ABUTH ([1]; 0.625 g/ha): 100%
- percentage phytotoxicity ABUTH ([1]; 1.25 g/ha): 100%
- percentage phytotoxicity ALOMY ([2]; 0.08 g/ha): 0%
- percentage phytotoxicity ALOMY ([2]; 0.16 g/ha): 5%
- percentage phytotoxicity ALOMY ([2]; 0.32 g/ha): 50%
- percentage phytotoxicity ALOMY ([2]; 0.625 g/ha): 55%
- percentage phytotoxicity ALOMY ([2]; 1.25 g/ha): 78%
- percentage phytotoxicity AMARE ([3]; 0.08 g/ha): 35%
- percentage phytotoxicity AMARE ([3]; 0.16 g/ha): 100%
- percentage phytotoxicity AMARE ([3]; 0.32 g/ha): 100%
- percentage phytotoxicity AMARE ([3]; 0.625 g/ha): 100%
- percentage phytotoxicity AMARE ([3]; 1.25 g/ha): 100%
- percentage phytotoxicity CHEAL ([4]; 0.08 g/ha): 8%
- percentage phytotoxicity CHEAL ([4]; 0.16 g/ha): 63%
- percentage phytotoxicity CHEAL ([4]; 0.32 g/ha): 78%
- percentage phytotoxicity CHEAL ([4]; 0.625 g/ha): 80%
- percentage phytotoxicity CHEAL ([4]; 1.25 g/ha): 95%
- percentage phytotoxicity DIGSA ([5]; 0.08 g/ha): 0%
- percentage phytotoxicity DIGSA ([5]; 0.16 g/ha): 13%
- percentage phytotoxicity DIGSA ([5]; 0.32 g/ha): 40%
- percentage phytotoxicity DIGSA ([5]; 0.625 g/ha): 50%
- percentage phytotoxicity DIGSA ([5]; 1.25 g/ha): 68%
- percentage phytotoxicity ECHCG ([6]; 0.08 g/ha): 0%
- percentage phytotoxicity ECHCG ([6]; 0.16 g/ha): 0%
- percentage phytotoxicity ECHCG ([6]; 0.32 g/ha): 10%
- percentage phytotoxicity ECHCG ([6]; 0.625 g/ha): 8%
- percentage phytotoxicity ECHCG ([6]; 1.25 g/ha): 20%
- percentage phytotoxicity IPOHE ([7]; 0.08 g/ha): 23%
- percentage phytotoxicity IPOHE ([7]; 0.16 g/ha): 50%
- percentage phytotoxicity IPOHE ([7]; 0.32 g/ha): 55%
- percentage phytotoxicity IPOHE ([7]; 0.625 g/ha): 93%
- percentage phytotoxicity IPOHE ([7]; 1.25 g/ha): 88%
- percentage phytotoxicity LOLPE ([8]; 0.08 g/ha): 0%
- percentage phytotoxicity LOLPE ([8]; 0.16 g/ha): 5%
- percentage phytotoxicity LOLPE ([8]; 0.32 g/ha): 38%
- percentage phytotoxicity LOLPE ([8]; 0.625 g/ha): 30%
- percentage phytotoxicity LOLPE ([8]; 1.25 g/ha): 60%
- percentage phytotoxicity SETFA ([9]; 0.08 g/ha): 0%
- percentage phytotoxicity SETFA ([9]; 0.16 g/ha): 0%
- percentage phytotoxicity SETFA ([9]; 0.32 g/ha): 20%
- percentage phytotoxicity SETFA ([9]; 0.625 g/ha): 20%
- percentage phytotoxicity SETFA ([9]; 1.25 g/ha): 33%
- percentage phytotoxicity STEME ([10]; 0.08 g/ha): 15%
- percentage phytotoxicity STEME ([10]; 0.16 g/ha): 45%
- percentage phytotoxicity STEME ([10]; 0.32 g/ha): 85%
- percentage phytotoxicity STEME ([10]; 0.625 g/ha): 95%
- percentage phytotoxicity STEME ([10]; 1.25 g/ha): 100%

SMILES: CN1C[C@H](c2cccc(C(F)(F)F)c2)[C@@H](C(=O)Nc2ccccc2F)C1=O [B-III]
- percentage phytotoxicity ABUTH ([1]; 3.125 g/ha): 10%
- percentage phytotoxicity ABUTH ([1]; 6.25 g/ha): 4%
- percentage phytotoxicity ABUTH ([1]; 12.5 g/ha): 3%
- percentage phytotoxicity ABUTH ([1]; 25 g/ha): 19%
- percentage phytotoxicity ABUTH ([1]; 50 g/ha): 18%
- percentage phytotoxicity AMARE ([3]; 3.125 g/ha): 4%
- percentage phytotoxicity AMARE ([3]; 6.25 g/ha): 6%
- percentage phytotoxicity AMARE ([3]; 12.5 g/ha): 10%
- percentage phytotoxicity AMARE ([3]; 25 g/ha): 21%
- percentage phytotoxicity AMARE ([3]; 50 g/ha): 31%
- percentage phytotoxicity CHEAL ([4]; 3.125 g/ha): 6%
- percentage phytotoxicity CHEAL ([4]; 6.25 g/ha): 10%
- percentage phytotoxicity CHEAL ([4]; 12.5 g/ha): 14%
- percentage phytotoxicity CHEAL ([4]; 25 g/ha): 44%
- percentage phytotoxicity CHEAL ([4]; 50 g/ha): 56%
- percentage phytotoxicity DIGSA ([5]; 3.125 g/ha): 72%
- percentage phytotoxicity DIGSA ([5]; 6.25 g/ha): 74%
- percentage phytotoxicity DIGSA ([5]; 12.5 g/ha): 78%
- percentage phytotoxicity DIGSA ([5]; 25 g/ha): 79%
- percentage phytotoxicity DIGSA ([5]; 50 g/ha): 80%
- percentage phytotoxicity ECHCG ([6]; 3.125 g/ha): 70%
- percentage phytotoxicity ECHCG ([6]; 6.25 g/ha): 70%
- percentage phytotoxicity ECHCG ([6]; 12.5 g/ha): 73%
- percentage phytotoxicity ECHCG ([6]; 25 g/ha): 73%
- percentage phytotoxicity ECHCG ([6]; 50 g/ha): 75%
- percentage phytotoxicity IPOHE ([7]; 3.125 g/ha): 9%
- percentage phytotoxicity IPOHE ([7]; 6.25 g/ha): 11%
- percentage phytotoxicity IPOHE ([7]; 12.5 g/ha): 15%
- percentage phytotoxicity IPOHE ([7]; 25 g/ha): 24%
- percentage phytotoxicity IPOHE ([7]; 50 g/ha): 28%
- percentage phytotoxicity LOLPE ([8]; 3.125 g/ha): 30%
- percentage phytotoxicity LOLPE ([8]; 6.25 g/ha): 43%
- percentage phytotoxicity LOLPE ([8]; 12.5 g/ha): 55%
- percentage phytotoxicity LOLPE ([8]; 25 g/ha): 70%
- percentage phytotoxicity LOLPE ([8]; 50 g/ha): 75%
- percentage phytotoxicity SETFA ([9]; 3.125 g/ha): 66%
- percentage phytotoxicity SETFA ([9]; 6.25 g/ha): 68%
- percentage phytotoxicity SETFA ([9]; 12.5 g/ha): 70%
- percentage phytotoxicity SETFA ([9]; 25 g/ha): 74%
- percentage phytotoxicity SETFA ([9]; 50 g/ha): 73%
- percentage phytotoxicity STEME ([10]; 3.125 g/ha): 13%
- percentage phytotoxicity STEME ([10]; 6.25 g/ha): 21%
- percentage phytotoxicity STEME ([10]; 12.5 g/ha): 14%
- percentage phytotoxicity STEME ([10]; 25 g/ha): 46%
- percentage phytotoxicity STEME ([10]; 50 g/ha): 71%
